Test results published in PMC9329436, “Optimization of the 4-anilinoquin(az)oline scaffold as epidermal growth factor receptor (EGFR) inhibitors for chordoma utilizing a toxicology profiling assay platform” (Scientific Reports, 2022).
Where two headings read alike, the source gives them in different places.

Columns and labels:
Format in all cases: biochemical
[1] = molecular target: T1, 320 wild-type protein kinases (Homo sapiens, UniProt O14733); conditions: singlicate
T1 sequence (O14733 1-419): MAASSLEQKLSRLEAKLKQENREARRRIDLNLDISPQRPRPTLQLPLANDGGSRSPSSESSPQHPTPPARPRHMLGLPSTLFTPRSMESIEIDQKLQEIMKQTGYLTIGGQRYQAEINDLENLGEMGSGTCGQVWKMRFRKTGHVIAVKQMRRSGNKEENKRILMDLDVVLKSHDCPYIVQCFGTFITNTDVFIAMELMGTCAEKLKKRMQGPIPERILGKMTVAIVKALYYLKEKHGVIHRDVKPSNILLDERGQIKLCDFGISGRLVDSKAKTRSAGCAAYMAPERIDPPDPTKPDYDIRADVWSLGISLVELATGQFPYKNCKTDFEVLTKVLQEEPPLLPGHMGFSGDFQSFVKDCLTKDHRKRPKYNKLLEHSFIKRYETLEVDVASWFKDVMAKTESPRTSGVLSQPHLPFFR
Text: (§1) Table S4. Profiling of two compounds at two concentrations against 320 wild-type protein kinases; singlicate measurement; Residual activities (% of control).

[2] = molecular target: T2, 320 wild-type protein kinases (Homo sapiens, UniProt Q9UKI8); conditions: kinase TLK1, singlicate
T2 sequence (Q9UKI8 1-766): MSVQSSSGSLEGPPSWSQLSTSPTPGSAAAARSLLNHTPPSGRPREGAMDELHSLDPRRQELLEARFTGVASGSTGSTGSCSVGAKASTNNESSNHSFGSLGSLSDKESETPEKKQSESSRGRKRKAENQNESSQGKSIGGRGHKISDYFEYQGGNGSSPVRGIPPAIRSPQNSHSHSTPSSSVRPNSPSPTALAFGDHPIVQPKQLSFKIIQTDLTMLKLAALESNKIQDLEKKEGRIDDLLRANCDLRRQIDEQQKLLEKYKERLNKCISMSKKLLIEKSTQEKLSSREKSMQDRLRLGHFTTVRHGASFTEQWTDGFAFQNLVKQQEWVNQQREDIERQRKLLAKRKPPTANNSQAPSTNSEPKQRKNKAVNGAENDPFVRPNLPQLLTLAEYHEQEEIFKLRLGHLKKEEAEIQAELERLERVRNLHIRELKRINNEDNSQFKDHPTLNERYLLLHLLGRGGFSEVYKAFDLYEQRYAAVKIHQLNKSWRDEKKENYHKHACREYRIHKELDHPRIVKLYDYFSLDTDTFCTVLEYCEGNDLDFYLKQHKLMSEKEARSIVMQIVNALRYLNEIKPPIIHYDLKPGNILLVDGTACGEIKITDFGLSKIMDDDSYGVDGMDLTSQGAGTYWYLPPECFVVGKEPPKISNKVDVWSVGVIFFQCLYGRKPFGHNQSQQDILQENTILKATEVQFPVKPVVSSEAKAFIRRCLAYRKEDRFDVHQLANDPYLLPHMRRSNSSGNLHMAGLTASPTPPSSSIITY
Text: as §1

[3] = molecular target: 320 wild-type protein kinases (Homo sapiens, UniProt P36507); conditions: singlicate
Text: as §1

[4] = molecular target: 320 wild-type protein kinases (Homo sapiens, UniProt Q15759); conditions: p38-beta, singlicate
Text: as §1

[5] = molecular target: T3, 320 wild-type protein kinases (Homo sapiens, UniProt Q8NG66); conditions: singlicate
T3 sequence (Q8NG66 1-645): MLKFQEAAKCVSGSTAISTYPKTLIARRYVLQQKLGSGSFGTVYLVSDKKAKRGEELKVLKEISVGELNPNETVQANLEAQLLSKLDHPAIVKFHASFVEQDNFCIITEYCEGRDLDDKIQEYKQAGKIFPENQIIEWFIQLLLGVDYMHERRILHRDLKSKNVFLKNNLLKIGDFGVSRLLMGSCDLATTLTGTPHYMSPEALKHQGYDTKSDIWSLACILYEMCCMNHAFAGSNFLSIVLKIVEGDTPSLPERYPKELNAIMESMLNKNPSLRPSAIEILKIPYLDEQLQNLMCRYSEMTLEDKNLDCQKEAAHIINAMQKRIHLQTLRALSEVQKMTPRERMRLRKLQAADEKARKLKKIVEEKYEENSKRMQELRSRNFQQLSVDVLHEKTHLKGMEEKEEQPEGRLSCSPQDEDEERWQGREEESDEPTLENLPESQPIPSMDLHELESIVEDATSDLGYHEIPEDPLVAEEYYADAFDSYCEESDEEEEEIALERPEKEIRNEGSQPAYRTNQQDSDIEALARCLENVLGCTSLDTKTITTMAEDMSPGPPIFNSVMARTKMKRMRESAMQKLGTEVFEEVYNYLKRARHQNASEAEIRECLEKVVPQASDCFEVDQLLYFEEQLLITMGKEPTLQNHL
Text: as §1

[6] = molecular target: 320 wild-type protein kinases (Homo sapiens, UniProt O60566); conditions: BUB1B, singlicate
Text: as §1

[7] = molecular target: 320 wild-type protein kinases (Homo sapiens, UniProt Q9Y243); conditions: singlicate
Text: as §1

[8] = molecular target: T4, 320 wild-type protein kinases (Homo sapiens, UniProt Q8WTQ7); conditions: singlicate
T4 sequence (Q8WTQ7 1-553): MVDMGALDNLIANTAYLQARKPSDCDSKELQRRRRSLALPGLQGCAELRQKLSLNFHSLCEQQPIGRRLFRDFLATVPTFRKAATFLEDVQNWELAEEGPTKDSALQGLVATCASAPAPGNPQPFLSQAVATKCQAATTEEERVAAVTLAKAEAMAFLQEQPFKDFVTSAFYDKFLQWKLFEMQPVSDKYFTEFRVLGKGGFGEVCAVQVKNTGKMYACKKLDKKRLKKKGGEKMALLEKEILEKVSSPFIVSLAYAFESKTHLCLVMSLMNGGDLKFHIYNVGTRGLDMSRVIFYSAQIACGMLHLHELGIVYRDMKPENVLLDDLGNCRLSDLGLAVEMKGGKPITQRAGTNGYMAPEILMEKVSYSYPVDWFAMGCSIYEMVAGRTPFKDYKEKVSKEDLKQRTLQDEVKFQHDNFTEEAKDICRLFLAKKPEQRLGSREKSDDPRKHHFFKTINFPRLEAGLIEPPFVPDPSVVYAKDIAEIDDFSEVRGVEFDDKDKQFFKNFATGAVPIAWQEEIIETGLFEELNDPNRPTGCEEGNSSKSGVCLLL
Text: as §1

Chain of 320 wild-type protein kinases (Homo sapiens, UniProt Q15759) (Q15759 whole entry): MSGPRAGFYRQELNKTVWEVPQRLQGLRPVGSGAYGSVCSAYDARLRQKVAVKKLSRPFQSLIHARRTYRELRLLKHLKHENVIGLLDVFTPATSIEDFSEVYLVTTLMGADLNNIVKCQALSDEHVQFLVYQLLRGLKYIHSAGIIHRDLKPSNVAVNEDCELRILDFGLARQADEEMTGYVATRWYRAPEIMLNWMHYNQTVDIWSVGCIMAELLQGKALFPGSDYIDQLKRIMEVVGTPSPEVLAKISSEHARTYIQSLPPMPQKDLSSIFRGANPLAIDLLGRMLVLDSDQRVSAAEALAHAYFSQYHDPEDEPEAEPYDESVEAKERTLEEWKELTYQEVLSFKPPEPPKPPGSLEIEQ
Chain of 320 wild-type protein kinases (Homo sapiens, UniProt O60566) (O60566 whole entry): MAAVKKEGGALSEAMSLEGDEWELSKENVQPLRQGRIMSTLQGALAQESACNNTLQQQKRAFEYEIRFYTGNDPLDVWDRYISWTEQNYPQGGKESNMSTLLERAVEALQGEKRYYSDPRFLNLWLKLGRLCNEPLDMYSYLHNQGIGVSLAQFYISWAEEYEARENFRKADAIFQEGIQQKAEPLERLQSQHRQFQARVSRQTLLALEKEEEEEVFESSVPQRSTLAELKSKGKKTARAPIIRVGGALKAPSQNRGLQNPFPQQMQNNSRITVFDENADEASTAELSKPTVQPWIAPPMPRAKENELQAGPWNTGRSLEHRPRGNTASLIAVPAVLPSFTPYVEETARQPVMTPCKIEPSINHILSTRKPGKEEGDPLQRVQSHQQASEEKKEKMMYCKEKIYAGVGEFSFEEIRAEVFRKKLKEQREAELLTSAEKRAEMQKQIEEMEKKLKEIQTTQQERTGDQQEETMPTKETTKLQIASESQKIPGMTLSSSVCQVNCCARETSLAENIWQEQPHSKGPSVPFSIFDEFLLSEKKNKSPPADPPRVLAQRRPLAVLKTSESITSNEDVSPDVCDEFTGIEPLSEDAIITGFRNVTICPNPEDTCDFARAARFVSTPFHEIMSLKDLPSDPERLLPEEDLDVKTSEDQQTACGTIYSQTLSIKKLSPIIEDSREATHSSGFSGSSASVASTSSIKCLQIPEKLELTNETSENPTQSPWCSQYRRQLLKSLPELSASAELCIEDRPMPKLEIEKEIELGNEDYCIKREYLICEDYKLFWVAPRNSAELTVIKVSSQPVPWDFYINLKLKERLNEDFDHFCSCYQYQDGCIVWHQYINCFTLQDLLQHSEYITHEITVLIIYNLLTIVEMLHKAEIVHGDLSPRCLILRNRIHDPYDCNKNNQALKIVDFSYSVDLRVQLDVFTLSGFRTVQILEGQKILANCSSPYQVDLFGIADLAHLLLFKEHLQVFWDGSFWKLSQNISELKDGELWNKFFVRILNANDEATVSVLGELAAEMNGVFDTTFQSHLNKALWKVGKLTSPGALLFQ
Chain of 320 wild-type protein kinases (Homo sapiens, UniProt Q9Y243) (Q9Y243 whole entry): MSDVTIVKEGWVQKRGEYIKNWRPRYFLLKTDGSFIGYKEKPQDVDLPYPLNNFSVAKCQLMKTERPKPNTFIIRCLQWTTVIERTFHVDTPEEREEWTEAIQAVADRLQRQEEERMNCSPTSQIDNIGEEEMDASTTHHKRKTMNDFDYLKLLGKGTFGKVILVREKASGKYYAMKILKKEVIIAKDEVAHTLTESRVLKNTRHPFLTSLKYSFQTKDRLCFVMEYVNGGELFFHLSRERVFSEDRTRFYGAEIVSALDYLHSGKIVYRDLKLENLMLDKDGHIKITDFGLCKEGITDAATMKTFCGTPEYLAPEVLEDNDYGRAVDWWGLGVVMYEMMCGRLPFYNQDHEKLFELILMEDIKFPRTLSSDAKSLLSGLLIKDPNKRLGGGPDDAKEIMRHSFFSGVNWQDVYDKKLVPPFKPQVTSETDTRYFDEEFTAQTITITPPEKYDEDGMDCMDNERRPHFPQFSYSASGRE
Chain of 320 wild-type protein kinases (Homo sapiens, UniProt P36507) (P36507 whole entry): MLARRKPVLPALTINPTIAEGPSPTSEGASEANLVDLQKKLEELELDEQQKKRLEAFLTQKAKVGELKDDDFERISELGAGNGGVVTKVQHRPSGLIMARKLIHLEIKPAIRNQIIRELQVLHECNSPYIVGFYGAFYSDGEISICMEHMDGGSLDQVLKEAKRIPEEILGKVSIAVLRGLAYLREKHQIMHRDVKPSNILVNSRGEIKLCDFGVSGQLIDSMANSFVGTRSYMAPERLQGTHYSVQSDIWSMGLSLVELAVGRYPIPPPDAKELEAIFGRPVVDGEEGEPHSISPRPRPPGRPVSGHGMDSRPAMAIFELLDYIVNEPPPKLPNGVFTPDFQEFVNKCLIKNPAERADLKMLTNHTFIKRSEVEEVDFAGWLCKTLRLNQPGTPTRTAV

C#Cc1cc(Nc2ncnc3cc(I)ccc23)ccc1Cl [Compound 41]
Residual activity ([1]; MKK7, 1.0E-06 M): 120 % of control
Residual activity ([1]; MKK7, 1.0E-07 M): 86 % of control
Residual activity, TLK1 ([2]; assay conc. 1.0E-06 M): 100 % of control
Residual activity, TLK1 ([2]; assay conc. 1.0E-07 M): 110 % of control
Residual activity ([3]; MEK2, 1.0E-06 M): 80 % of control
Residual activity ([3]; MEK2, 1.0E-07 M): 101 % of control
Residual activity ([4]; 1.0E-06 M): 84 % of control
Residual activity ([4]; 1.0E-07 M): 82 % of control
Residual activity ([5]; NEK11, 1.0E-06 M): 95 % of control
Residual activity ([5]; NEK11, 1.0E-07 M): 82 % of control
Residual activity ([6]; 1.0E-06 M): 131 % of control
Residual activity ([6]; 1.0E-07 M): 122 % of control
Residual activity ([7]; AKT3 aa106-479, 1.0E-06 M): 97 % of control
Residual activity ([7]; AKT3 aa106-479, 1.0E-07 M): 94 % of control
Residual activity ([8]; GRK7, 1.0E-06 M): 116 % of control
Residual activity ([8]; GRK7, 1.0E-07 M): 124 % of control

C#Cc1cc(Nc2ncnc3cc(OC)c(OC)cc23)ccc1Cl [Compound 45]
Residual activity ([1]; MKK7, 1.0E-06 M): 98 % of control
Residual activity ([1]; MKK7, 1.0E-07 M): 112 % of control
Residual activity, TLK1 ([2]; assay conc. 1.0E-06 M): 108 % of control
Residual activity, TLK1 ([2]; assay conc. 1.0E-07 M): 112 % of control
Residual activity ([3]; MEK2, 1.0E-06 M): 105 % of control
Residual activity ([3]; MEK2, 1.0E-07 M): 102 % of control
Residual activity ([4]; 1.0E-06 M): 87 % of control
Residual activity ([4]; 1.0E-07 M): 90 % of control
Residual activity ([5]; NEK11, 1.0E-06 M): 103 % of control
Residual activity ([5]; NEK11, 1.0E-07 M): 106 % of control
Residual activity ([6]; 1.0E-06 M): 115 % of control
Residual activity ([6]; 1.0E-07 M): 137 % of control
Residual activity ([7]; AKT3 aa106-479, 1.0E-06 M): 101 % of control
Residual activity ([7]; AKT3 aa106-479, 1.0E-07 M): 96 % of control
Residual activity ([8]; GRK7, 1.0E-06 M): 121 % of control
Residual activity ([8]; GRK7, 1.0E-07 M): 115 % of control
